According to patent US11331369B2, “Endoparasitic depsipeptides” (Zoetis Services LLC, priority 2017, dated 2022):

Key:
Format in all cases: cell-based
[1] = test system: 4th stage larvae (L4) of Dirofilaria immitis; test: Dirofilaria immitis, L4 Stage (DiL4) In Vitro Assay; conditions: Dirofilaria immitis, 72 h, read-out: DiL4 Minimum Effective Dose (MED), approximately 72 hours incubation; L4 larvae assessed for survival or paralysis
[2] = test system: microfilariae of Dirofilaria immitis; test: Dirofilaria immitis, Microfilaria (DiMF) In vitro Assay; conditions: 72 h, read-out: DiMF Minimum Effective Dose (MED), approximately 72 hours incubation, microfilariae assessed for survival or paralysis
[3] = test system: third stage larvae of Haemonchus contortus; test: Haemonchus contortus L3 (HcL3) Assay; conditions: 96 h, read-out: HcL3 Minimum Effective Dose (MED)

Row | Structure (SMILES) | minimal effective concentration [1] [µM] | minimal effective concentration [2] [µM] | minimal effective concentration [3] [µM]
1 | CC(C)C[C@H]1C(=O)O[C@H](Cc2ccc(Cn3nccc3C3CCCC3)cc2)C(=O)N(C)[C@@H](CC(C)C)C(=O)O[C@H](C)C(=O)N(C)[C@@H](CC(C)C)C(=O)O[C@H](Cc2ccc(Cn3nccc3C3CCCC3)cc2)C(=O)N(C)[C@@H](CC(C)C)C(=O)O[C@H](C)C(=O)N1C [Example 1b-154, (3S,6R,9S,12R,15S,18R,21S,24R)-6,18-bis(4-((5-cyclopentyl-1H-pyrazol-1-yl)methyl)benzyl)-3,9,15,21-tetraisobutyl-4,10,12,16,22,24-hexamethyl-1,7,13,19-tetraoxa-4,10,16,22-tetraazacyclotetracosan-2,5,8,11,14,17,20,23-octaone] | ≤ 0.0001 | 0.001 to 0.01 | –
2 | CC(C)C[C@H]1C(=O)O[C@H](Cc2ccc(Cn3ccnc3C(F)(F)F)cc2)C(=O)N(C)[C@@H](CC(C)C)C(=O)O[C@H](C)C(=O)N(C)[C@@H](CC(C)C)C(=O)O[C@H](Cc2ccc(Cn3ccnc3C(F)(F)F)cc2)C(=O)N(C)[C@@H](CC(C)C)C(=O)O[C@H](C)C(=O)N1C [Example 6-15, (3S,6R,9S,12R,15S,18R,21S,24R)-3,9,15,21-tetraisobutyl-4,6,10,16,18,22-hexamethyl-12,24-bis(4-((2-(trifluoromethyl)-1H-imidazol-1-yl)methyl)benzyl)-1,7,13,19-tetraoxa-4,10,16,22-tetraazacyclotetracosan-2,5,8,11,14,17,20,23-octaone] | 0.0001 to 0.001 | – | –
3 | COc1cc(C)n(Cc2ccc(C[C@H]3OC(=O)[C@H](CC(C)C)N(C)C(=O)[C@@H](C)OC(=O)[C@H](CC(C)C)N(C)C(=O)[C@@H](Cc4ccc(Cn5nc(OC)cc5C)cc4)OC(=O)[C@H](CC(C)C)N(C)C(=O)[C@@H](C)OC(=O)[C@H](CC(C)C)N(C)C3=O)cc2)n1 [Example 1b-168, (3S,6R,9S,12R,15S,18R,21S,24R)-3,9,15,21-tetraisobutyl-6,18-bis(4-((3-methoxy-5-methyl-1H-pyrazol-1-yl)methyl)benzyl)-4,10,12,16,22,24-hexamethyl-1,7,13,19-tetraoxa-4,10,16,22-tetraazacyclotetracosan-2,5,8,11,14,17,20,23-octaone] | 0.001 to 0.01 | – | –
4 | CC(C)C[C@H]1C(=O)O[C@H](Cc2ccc(Cn3nccc3-c3ccc(Cl)cc3)cc2)C(=O)N(C)[C@@H](CC(C)C)C(=O)O[C@H](C)C(=O)N(C)[C@@H](CC(C)C)C(=O)O[C@H](Cc2ccc(Cn3nccc3-c3ccc(Cl)cc3)cc2)C(=O)N(C)[C@@H](CC(C)C)C(=O)O[C@H](C)C(=O)N1C [Example 1b-153, (3S,6R,9S,12R,15S,18R,21S,24R)-6,18-bis(4-((5-(4-chlorophenyl)-1H-pyrazol-1-yl)methyl)benzyl)-3,9,15,21-tetraisobutyl-4,10,12,16,22,24-hexamethyl-1,7,13,19-tetraoxa-4,10,16,22-tetraazacyclotetracosan-2,5,8,11,14,17,20,23-octaone] | 0.001 to 0.01 | – | –
5 | CC(C)C[C@H]1C(=O)O[C@H](Cc2ccc(Cn3nccc3C3CCCC3)cc2)C(=O)N(C)[C@@H](CC(C)C)C(=O)O[C@H](C)C(=O)N(C)[C@@H](CC(C)C)C(=O)O[C@H](Cc2ccc(Cn3ccc(C4CCCC4)n3)cc2)C(=O)N(C)[C@@H](CC(C)C)C(=O)O[C@H](C)C(=O)N1C [Example 1a-34, (3S,6R,9S,12R,15S,18R,21S,24R)-6-(4-((3-cyclopentyl-1H-pyrazol-1-yl)methyl)benzyl)-18-(4-((5-cyclopentyl-1H-pyrazol-1-yl)methyl)benzyl)-3,9,15,21-tetraisobutyl-4,10,12,16,22,24-hexamethyl-1,7,13,19-tetraoxa-4,10,16,22-tetraazacyclotetracosan-2,5,8,11,14,17,20,23-octaone] | 0.001 to 0.01 | – | –
6 | CC(C)C[C@H]1C(=O)O[C@H](Cc2ccc(Cn3cc(OCC4CC4)cn3)cc2)C(=O)N(C)[C@@H](CC(C)C)C(=O)O[C@H](C)C(=O)N(C)[C@@H](CC(C)C)C(=O)O[C@H](Cc2ccc(Cn3cc(OCC4CC4)cn3)cc2)C(=O)N(C)[C@@H](CC(C)C)C(=O)O[C@H](C)C(=O)N1C [Example 1b-146, (3S,6R,9S,12R,15S,18R,21S,24R)-6,18-bis(4-((4-(cyclopropylmethoxy)-1H-pyrazol-1-yl)methyl)benzyl)-3,9,15,21-tetraisobutyl-4,10,12,16,22,24-hexamethyl-1,7,13,19-tetraoxa-4,10,16,22-tetraazacyclotetracosan-2,5,8,11,14,17,20,23-octaone] | 0.001 to 0.01 | – | –
7 | Cc1cc(C#N)nn1Cc1ccc(C[C@H]2OC(=O)[C@H](CC(C)C)N(C)C(=O)[C@@H](C)OC(=O)[C@H](CC(C)C)N(C)C(=O)[C@@H](Cc3ccc(Cn4nc(C#N)cc4C)cc3)OC(=O)[C@H](CC(C)C)N(C)C(=O)[C@@H](C)OC(=O)[C@H](CC(C)C)N(C)C2=O)cc1 [Example 1b-194, 1,1′-(((((2R,5S,8R,11S,14R,17S,20R,23S)-5,11,17,23-tetraisobutyl-4,8,10,16,20,22-hexamethyl-3,6,9,12,15,18,21,24-octaoxo-1,7,13,19-tetraoxa-4,10,16,22-tetraazacyclotetracosane-2,14-diyl)bis(methylene))bis(4,1-phenylene))bis(methylene))bis(5-methyl-1H-pyrazole-3-carbonitrile)] | 0.0001 to 0.001 | – | –
8 | Cc1nn(Cc2ccc(C[C@H]3OC(=O)[C@H](CC(C)C)N(C)C(=O)[C@@H](C)OC(=O)[C@H](CC(C)C)N(C)C(=O)[C@@H](Cc4ccc(Cn5nc(C)c(Cl)c5C)cc4)OC(=O)[C@H](CC(C)C)N(C)C(=O)[C@@H](C)OC(=O)[C@H](CC(C)C)N(C)C3=O)cc2)c(C)c1Cl [Example 1b-51, (3S,6R,9S,12R,15S,18R,21S,24R)-6,18-bis(4-((4-chloro-3,5-dimethyl-1H-pyrazol-1-yl)methyl)benzyl)-3,9,15,21-tetraisobutyl-4,10,12,16,22,24-hexamethyl-1,7,13,19-tetraoxa-4,10,16,22-tetraazacyclotetracosan-2,5,8,11,14,17,20,23-octaone] | 0.0001 to 0.001 | – | –
9 | CCOc1cc(-c2ccccc2)nn1Cc1ccc(C[C@H]2OC(=O)[C@H](CC(C)C)N(C)C(=O)[C@@H](C)OC(=O)[C@H](CC(C)C)N(C)C(=O)[C@@H](Cc3ccc(Cn4nc(-c5ccccc5)cc4OCC)cc3)OC(=O)[C@H](CC(C)C)N(C)C(=O)[C@@H](C)OC(=O)[C@H](CC(C)C)N(C)C2=O)cc1 [Example 1b-178, (3S,6R,9S,12R,15S,18R,21S,24R)-6,18-bis(4-((5-ethoxy-3-phenyl-1H-pyrazol-1-yl)methyl)benzyl)-3,9,15,21-tetraisobutyl-4,10,12,16,22,24-hexamethyl-1,7,13,19-tetraoxa-4,10,16,22-tetraazacyclotetracosan-2,5,8,11,14,17,20,23-octaone] | 0.001 to 0.01 | – | –
10 | CC(C)C[C@H]1C(=O)O[C@H](Cc2ccc(C(C)(C)n3cc(C4CC4)cn3)cc2)C(=O)N(C)[C@@H](CC(C)C)C(=O)O[C@H](C)C(=O)N(C)[C@@H](CC(C)C)C(=O)O[C@H](Cc2ccc(C(C)(C)n3cc(C4CC4)cn3)cc2)C(=O)N(C)[C@@H](CC(C)C)C(=O)O[C@H](C)C(=O)N1C [Example 1c-8, (3S,6R,9S,12R,15S,18R,21S,24R)-6,18-bis(4-(2-(4-cyclopropyl-1H-pyrazol-1-yl)propan-2-yl)benzyl)-3,9,15,21-tetraisobutyl-4,10,12,16,22,24-hexamethyl-1,7,13,19-tetraoxa-4,10,16,22-tetraazacyclotetracosan-2,5,8,11,14,17,20,23-octaone] | ≤ 0.0001 | – | –
11 | CC(C)C[C@H]1C(=O)O[C@H](Cc2ccc(Cn3nccc3C(C)(C)C)cc2)C(=O)N(C)[C@@H](CC(C)C)C(=O)O[C@H](C)C(=O)N(C)[C@@H](CC(C)C)C(=O)O[C@H](Cc2ccccc2)C(=O)N(C)[C@@H](CC(C)C)C(=O)O[C@H](C)C(=O)N1C [Example 2-68, (3S,6R,9S,12R,15S,18R,21S,24R)-6-benzyl-18-(4-((5-(tert-butyl)-1H-pyrazol-1-yl)methyl)benzyl)-3,9,15,21-tetraisobutyl-4,10,12,16,22,24-hexamethyl-1,7,13,19-tetraoxa-4,10,16,22-tetraazacyclotetracosan-2,5,8,11,14,17,20,23-octaone] | – | 0.01 to 0.1 | 1 to 10
12 | CC(C)C[C@H]1C(=O)O[C@H](Cc2ccc(CN3C(=O)CCC3=O)cc2)C(=O)N(C)[C@@H](CC(C)C)C(=O)O[C@H](C)C(=O)N(C)[C@@H](CC(C)C)C(=O)O[C@H](Cc2ccc(CN3C(=O)CCC3=O)cc2)C(=O)N(C)[C@@H](CC(C)C)C(=O)O[C@H](C)C(=O)N1C [Example 9-11, (3S,6R,9S,12R,15S,18R,21S,24R)-6,18-bis(4-((2,5-dioxopyrrolidin-1-yl)methyl)benzyl)-3,9,15,21-tetraisobutyl-4,10,12,16,22,24-hexamethyl-1,7,13,19-tetraoxa-4,10,16,22-tetraazacyclotetracosan-2,5,8,11,14,17,20,23-octaone] | – | 0.001 to 0.01 | 1 to 10
13 | CC(C)C[C@H]1C(=O)O[C@H](Cc2ccc(CN3CCOc4ccncc43)cc2)C(=O)N(C)[C@@H](CC(C)C)C(=O)O[C@H](C)C(=O)N(C)[C@@H](CC(C)C)C(=O)O[C@H](Cc2ccc(CN3CCOc4ccncc43)cc2)C(=O)N(C)[C@@H](CC(C)C)C(=O)O[C@H](C)C(=O)N1C [Example 9-63, (3S,6R,9S,12R,15S,18R,21S,24R)-6,18-bis[[4-(2,3-dihydropyrido[4,3-b][1,4]oxazin-4-ylmethyl)phenyl]methyl]-3,9,15,21-tetraisobutyl-4,10,12,16,22,24-hexamethyl-1,7,13,19-tetraoxa-4,10,16,22-tetrazacyclotetracosane-2,5,8,11,14,17,20,23-octaone] | 0.001 to 0.01 | – | –
